pEC50, pIC50: −log10 of the molar value. Where two headings read alike, the source gives them in different places.
Key:
[1] = test system: vaccinia virus WR; assay: microbe, parasite or virus in culture; type: cell-based
[2] = test system: vaccinia virus WR; type: cell-based
[3] = test system: BS-C-1 cells; assay: WST-1 cytotoxicity assay; conditions: for CC50: Table 4; for tox 20 h TC50 / tox 120 h TC50 / tox 72 h TC50: Table 6
[4] = test system: vaccinia virus WR; assay: microbe, parasite or virus in culture; type: cell-based; remark: listed apart in the source
[5] = target: vaccinia virus DNA synthesis (viral DNA polymerase and its associated factors) (Vaccinia virus, UniProt P06856); type: biochemical
[6] = test system: vaccinia virus; type: cell-based; also: test concentration or dose not given here
[7] = Orthopoxvirus vaccinia, 20 h, read-out: Cell Protection 20 h EC50
[8] = read-out: Cytotoxicity 20 h CC50, 20 h
[9] = Orthopoxvirus vaccinia, BSC-1, 20 h, read-out: cell prot EC50
[10] = read-out: Cytotoxicity 120 h CC50, 120 h
[11] = read-out: DNA Synthesis Inhibition IC50
[12] = Orthopoxvirus vaccinia, 20 h, read-out: Plaque Reduction 20 h EC50
[13] = Orthopoxvirus vaccinia, BSC-1, 20 h, read-out: plaque red EC50
[14] = read-out: Cytotoxicity 72 h CC50, 72 h

## C[C@@]1(CO)[C@H](O)CC[C@@]2(C)[C@H]1CC[C@H]1C[C@@H]3C[C@@]12CC[C@]3(O)CO [Aphidicolin, reference compound]
[1]; [7]
  pEC50: 4.74
[2]
  Effect of dsDNA: No

## Nc1ccn([C@@H]2O[C@H](CO)[C@@H](O)[C@@H]2O)c(=O)n1 [Ara-C, reference compound]
[1]; read-out: Cell Protection 20 h EC50
  pEC50: 6.62
[3]; [8]
  CC50: 16 µM
[2]
  Effect of dsDNA: Yes
[4]; read-out: Plaque Reduction 20 h EC50
  pEC50: 6.30

## COC(=O)c1cccc2c1-c1ccccc1/C2=N\O [Compound 1]
[1]
  Selectivity Index SI: 13.2
  selectivity index: 13.2
  selectivity index over 72 h: 3.2
[1]; [7]
  pEC50: 5.02
[1]; [9]
  pEC50: 5.02
[3]; 20 h
  tox 20 h TC50: 127 µM
[3]; 120 h
  tox 120 h TC50: 20 µM
[3]; [8]
  CC50: 127 µM
[3]; [10]
  CC50: 20 µM
[5]; [11]
  pIC50: 3.97
[5]; read-out: DNA synth IC50
  pIC50: 3.97
[2]
  Effect of dsDNA: No
  trapped by dsDNA: no
[4]; [12]
  pEC50: 5.00
[4]; [13]
  pEC50: 5.00

## CCOC(=O)c1c(NC(=O)/C=C/C(=O)O)sc(C)c1-c1ccccc1 [Compound 2]
[1]; [7]
  pEC50: 4.52
[1]; [9]
  pEC50: 4.52
[3]; 20 h
  tox 20 h TC50: 159 µM
[3]; [8]
  CC50: 159 µM
[5]; [11]
  pIC50: 3.43
[5]; read-out: DNA synth IC50
  pIC50: 3.43
[2]
  Effect of dsDNA: No
  trapped by dsDNA: no
[4]; [12]
  pEC50: 4.60
[4]; [13]
  pEC50: 4.60

## CCn1c2ccccc2c2ccc(/C=N/n3cnnc3)cc21 [Compound 3]
[1]
  Selectivity Index SI: >4.0
  selectivity index: >4.0
[1]; [7]
  pEC50: 4.30
[1]; [9]
  pEC50: 4.30
[3]; 20 h
  tox 20 h TC50: >200 µM
[3]; 72 h
  tox 72 h TC50: 36 µM
[3]; 120 h
  tox 120 h TC50: 3 µM
[3]; [8]
  CC50: > 200 µM
[3]; [14]
  CC50: 36 µM
[3]; [10]
  CC50: 3 µM
[5]; [11]
  pIC50: 3.88
[5]; read-out: DNA synth IC50
  pIC50: 3.88
[2]
  Effect of dsDNA: No
  trapped by dsDNA: no
[4]; [12]
  pEC50: 4.30
[4]; [13]
  pEC50: 4.30

## Cc1csc2c(N3CCN(C(=O)NC(C)(C)C)CC3)ncnc12 [Compound 4]
[1]
  Selectivity Index SI: 3.1
  selectivity index: 3.1
[1]; [7]
  pEC50: 4.30
[1]; [9]
  pEC50: 4.30
[3]; 20 h
  tox 20 h TC50: 157 µM
[3]; 120 h
  tox 120 h TC50: 40 µM
[3]; [8]
  CC50: 157 µM
[3]; [10]
  CC50: 40 µM
[5]; [11]
  pIC50: 4.92
[5]; read-out: DNA synth IC50
  pIC50: 4.92
[2]
  Effect of dsDNA: No
  trapped by dsDNA: no
[4]; [12]
  pEC50: 4.82
[4]; [13]
  pEC50: 4.82

## CCNc1nc(SCc2ccc(Cl)cc2)nc2sc3c(c12)CCN(C)C3 [Compound 5]
[1]
  Selectivity Index SI: 2.6
  selectivity index: 2.6
[1]; [7]
  pEC50: 4.35
[1]; [9]
  pEC50: 4.38
[3]; 20 h
  tox 20 h TC50: 155 µM
[3]; 120 h
  tox 120 h TC50: 5 µM
[3]; [8]
  CC50: 115 µM
[3]; [10]
  CC50: 5 µM
[5]; [11]
  pIC50: 3.89
[5]; read-out: DNA synth IC50
  pIC50: 3.89
[2]
  Effect of dsDNA: No
  trapped by dsDNA: no
[4]; [12]
  pEC50: 4.82
[4]; [13]
  pEC50: 4.82

## Cc1ccc2c(Sc3ccc(Cl)cc3)c(C(=O)O)[nH]c2c1 [Compound 11]
[1]
  Selectivity Index SI: >1.5
  selectivity index: >1.5
[1]; [7]
  pEC50: 3.89
[1]; [9]
  pEC50: 3.89
[3]; 20 h
  tox 20 h TC50: >200 µM
[3]; 72 h
  tox 72 h TC50: 174 µM
[3]; 120 h
  tox 120 h TC50: 120 µM
[3]; [8]
  CC50: > 200 µM
[3]; [14]
  CC50: 174 µM
[3]; [10]
  CC50: 120 µM
[5]; [11]
  pIC50: 4.37
[5]; read-out: DNA synth IC50
  pIC50: 4.37
[2]
  Effect of dsDNA: No
  trapped by dsDNA: no
[4]; [12]
  pEC50: 4.12
[4]; [13]
  pEC50: 4.12

## CC[n+]1c(-c2ccccc2)c2cc(N)ccc2c2ccc(N)cc21 [Ethidium, reference compound]
[1]; [7]
  pEC50: 4.00
[2]
  Effect of dsDNA: Yes

## CCN(CC)CCCC(C)Nc1c2ccc(Cl)cc2nc2ccc(OC)cc12 (centres unmarked) [Quinacrine, reference compound]
[1]; [7]
  pEC50: 4.77
[2]
  Effect of dsDNA: Yes

## CCN1CCCC1CNC(=O)c1ccc2c(c1)sc1nc(-c3cccc(OC)c3)cn12 (centres unmarked) [XVIII, Imidazo[2,1-b]benzothiazole-7-carboxamide, N-(1-ethyl-2-pyrrolidyl)methyl-2-(3-methoxyphenyl)-(9CI)]
[6]
  Blocking the replication of vaccinia virus in cells: effective in blocking the replication of vaccinia virus in cells

## O=C(Nc1ccccc1C(=O)O)OCC1c2ccccc2-c2ccccc21 [XXI, Benzoic acid, 2-[[(9H-fluoren-9-ylmethoxy)carbonyl]amino]-(9CI)]
[6]
  Blocking the replication of vaccinia virus in cells: effective in blocking the replication of vaccinia virus in cells

## COc1ccc(Nc2nc(N3CCN(C)CC3)nc3ccccc23)c(OC)c1 [XXII, 4-Quinazolinamine, N-(2,4-dimethoxyphenyl)-2-(4-methyl-1-piperazinyl)-(9CI)]
[6]
  Blocking the replication of vaccinia virus in cells: effective in blocking the replication of vaccinia virus in cells

## COc1ccc2c(C)nc(N=C(N)N=C(C)c3ccccc3C(=O)O)nc2c1 [XXIII, Benzoic acid, 2-[1-[[amino[(7-methoxy-4-methyl-2-quinazolinyl)imino]methyl]imino]ethyl]-(9CI)]
[6]
  Blocking the replication of vaccinia virus in cells: effective in blocking the replication of vaccinia virus in cells

## CCn1c2ccccc2c2ccc(/C=N/n3cnnc3)cc21 [XXIV, (E)-N-((9-ethyl-9H-carbazol-2-yl)methylene)-4H-1,2,4-triazol-4-amine]
[6]
  Blocking the replication of vaccinia virus in cells: effective in blocking the replication of vaccinia virus in cells

## CN(C)CCOC(=O)c1ccc2[nH]c3c(c2c1)CSCC3 [XXIX, Thiopyrano[4,3-b]indole-8-carboxylic acid, 1,3,4,5-tetrahydro-, 2-(dimethylamino)ethyl ester (7CI,8CI,9CI)]
[6]
  Blocking the replication of vaccinia virus in cells: effective in blocking the replication of vaccinia virus in cells

## O=C(C=Cc1ccco1)C=Cc1ccco1 [XXVI, 1,4-Pentadien-3-one, 1,5-di-2-furanyl-(9CI)]
[6]
  Blocking the replication of vaccinia virus in cells: effective in blocking the replication of vaccinia virus in cells

## COC(=O)c1c(NC(=O)c2ccc(OC)cc2)sc2c1CCN(C(C)C)C2.Cl [XXVII, Methyl 6-isopropyl-2-(4-methoxyphenylamido)-4,5,6,7-tetrahydrothieno[2,3-c]pyridine-3-carboxylate hydrochloride]
[6]
  Blocking the replication of vaccinia virus in cells: effective in blocking the replication of vaccinia virus in cells

## CCOC(=O)c1c(NC(=O)/C=C/C(=O)O)sc(C)c1-c1ccccc1 [XXVIII, (E)-4-(3-(ethoxycarbonyl)-5-methyl-4-phenylthiophen-2-ylamino)-4-oxobut-2-enoic acid]
[6]
  Blocking the replication of vaccinia virus in cells: effective in blocking the replication of vaccinia virus in cells

## CN(C)c1ccc(-c2cccc(-c3ccc(N(C)C)cc3)[o+]2)cc1 [XXX, 2,6-bis(4-(dimethylamino)phenyl)pyrylium]
[6]
  Blocking the replication of vaccinia virus in cells: effective in blocking the replication of vaccinia virus in cells

## CCN1C(=O)/C(=C/C=C/c2ccco2)C(=O)NC1=S [XXXI, (E)-1-ethyl-5-((E)-3-(furan-2-yl)allylidene)-2-thioxodihydropyrimidine-4,6(1H,5H)-dione]
[6]
  Blocking the replication of vaccinia virus in cells: effective in blocking the replication of vaccinia virus in cells

## [H]/N=C1/SC(=Cc2ccco2)C(=O)N1c1nccs1 [XXXII, (E)-5-(furan-2-ylmethylene)-2-imino-3-(thiazol-2-yl)thiazolidin-4-one]
[6]
  Blocking the replication of vaccinia virus in cells: effective in blocking the replication of vaccinia virus in cells

## COc1ccc(Nc2cc(C(F)(F)F)ccc2Cl)c(C(=O)O)c1 [XXXIV, 2-(2-chloro-5-(trifluoromethyl)phenylamino)-5-methoxybenzoic acid]
[6]
  Blocking the replication of vaccinia virus in cells: effective in blocking the replication of vaccinia virus in cells

## O=C1CSC(=S)N1/N=C/c1ccc(Cl)c([N+](=O)[O-])c1 [XXXIX, (E)-3-(4-chloro-3-nitrobenzylideneamino)-2-thioxothiazolidin-4-one]
[6]
  Blocking the replication of vaccinia virus in cells: effective in blocking the replication of vaccinia virus in cells

## CN1CCc2c(-c3cccs3)nc(OCc3ccccc3Br)c(C#N)c2C1 [XXXV, 3-(2-bromobenzyloxy)-6-methyl-1-(thiophen-2-yl)-5,6,7,8-tetrahydro-2,6-naphthyridine-4-carbonitrile]
[6]
  Blocking the replication of vaccinia virus in cells: effective in blocking the replication of vaccinia virus in cells
